Measured values taken from patent US20250228239A1, “MOLECULES HAVING PESTICIDAL UTILITY, AND INTERMEDIATES, COMPOSITIONS, AND PROCESSES, RELATED THERETO” (priority 2024, published 2025).

What was measured:
Format in all cases: in vivo
[1] = test system: Beet Armyworm (Spodoptera exigua, LAPHEG); experiment: Bioassays on Beet Armyworm (BAW), 128-well diet tray assay; conditions: Spodoptera exigua; Beet Armyworm, Table ABC / ABC-DP rating; read-out: BAW rating
Method in brief: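 Second-instar larvae, one to five per well, were placed on artificial diet surface-treated with 50 μg/cm^2 compound in 90:10 acetone-water, eight wells per treatment. Trays were held 5–7 days at 25 °C, 14:10 light-dark. Percent mortality per well was averaged over eight wells.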

[2] = test system: Cabbage Looper (Trichoplusia ni, TRIPNI); experiment: Bioassays on Cabbage Looper (CL), 128-well diet tray assay; conditions: Trichoplusia ni; Cabbage Looper, Table ABC / ABC-DP rating; read-out: CL rating
Method in brief: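 Percent mortality, averaged across eight replicate wells, after second-instar larvae (1–5 per well) fed for five to seven days on diet dosed at 50 μg/cm^2. Compound was applied in acetone-water 90:10 and dried; trays kept vented at 25° C under 14:10 photoperiod.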

[3] = test system: Yellow Fever Mosquito (Aedes aegypti, AEDSAE); conditions: Yellow Fever Mosquito, Table ABC / ABC-DP rating
Method in brief: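 Larvae ~1 day old, in liver powder/water; compound from 4000 ppm DMSO stock diluted with water/acetone (90:10); 6 reps; lidded, RT, 3 d; mortality scored per well, rated.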

| Compound | pest or weed control at 50 µg/cm2 [1] [%] | pest or weed control at 50 µg/cm2 [2] [%] | YFM rating [3] |
| --- | --- | --- | --- |
| O=C(Nc1ccc(F)c(NC(=O)C(F)(F)C(F)(F)C(F)(F)F)c1F)c1cc(NC(=O)[C@H]2[C@H](c3cc(C(F)(F)F)cc(C(F)(F)F)c3)C2(Cl)Cl)ccc1Cl (relative stereo) [F1825, trans-5-(3-(3,5-bis(Trifluoromethyl)phenyl)-2,2-dichlorocyclopropane-1-carboxamido)-2-chloro-N-(2,4-difluoro-3-(2,2,3,3,4,4,4-heptafluorobutanamido)phenyl)benzamide] | 50 to 100 | 50 to 100 | A (80–100) |
| O=C(NCC(F)(F)F)c1cc(NC(=O)[C@H]2[C@H](c3cc(C(F)(F)F)ccc3Cl)C2(Cl)Cl)ccc1Cl (relative stereo) [F2001, trans-2-Chloro-5-(2,2-dichloro-3-(2-chloro-5-(trifluoromethyl)phenyl)-cyclopropane-1-carboxamido)-N-(2,2,2-trifluoroethyl)benzamide] | 50 to 100 | 50 to 100 | A (80–100) |
| O=C(NCC(F)(F)F)c1cc(NC(=O)[C@H]2[C@H](c3c(F)c(F)c(F)c(F)c3F)C2(Cl)Cl)ccc1Cl (relative stereo) [F2002, trans-2-Chloro-5-(2,2-dichloro-3-(perfluorophenyl)cyclopropane-1-carboxamido)-N-(2,2,2-trifluoroethyl)benzamide] | 50 to 100 | 50 to 100 | A (80–100) |
| O=C(NCC(F)(F)F)c1cc(NC(=O)[C@H]2[C@H](c3cc(F)c(F)c(Br)c3)C2(Cl)Cl)ccc1Cl (relative stereo) [F2003, trans-5-(3-(3-Bromo-4,5-difluorophenyl)-2,2-dichlorocyclopropane-1-carboxamido)-2-chloro-N-(2,2,2-trifluoroethyl)benzamide] | 50 to 100 | 50 to 100 | A (80–100) |
| O=C(NCC(F)(F)F)c1cc(NC(=O)[C@H]2[C@@H](c3cc(F)c(F)c(Br)c3)C2(Cl)Cl)ccc1Cl (relative stereo) [F2004, cis-5-(3-(3-Bromo-4,5-difluorophenyl)-2,2-dichlorocyclopropane-1-carboxamido)-2-chloro-N-(2,2,2-trifluoroethyl)benzamide] | 50 to 100 | 50 to 100 | A (80–100) |
| O=C(NCC(F)(F)C(F)(F)F)c1c(Cl)ccc(NC(=O)[C@H]2[C@H](c3ccc(F)c(Cl)c3)C2(Cl)Cl)c1Cl (relative stereo) [F2005, trans-2,6-Dichloro-3-(2,2-dichloro-3-(3-chloro-4-fluorophenyl)cyclopropane-1-carboxamido)-N-(2,2,3,3,3-pentafluoropropyl)benzamide] | 50 to 100 | 50 to 100 | A (80–100) |
| O=C(NCC(F)(F)F)c1cc(NC(=O)[C@H]2[C@H](c3cc(F)c(Cl)c(Cl)c3)C2(Cl)Cl)ccc1Cl (relative stereo) [F2006, trans-2-Chloro-5-(2,2-dichloro-3-(3,4-dichloro-5-fluorophenyl)cyclopropane-1-carboxamido)-N-(2,2,2-trifluoroethyl)benzamide] | 50 to 100 | 50 to 100 | A (80–100) |
| O=C(NCC(F)(F)F)c1cc(NC(=O)[C@H]2[C@@H](c3cc(F)c(Cl)c(Cl)c3)C2(Cl)Cl)ccc1Cl (relative stereo) [F2007, cis-2-Chloro-5-(2,2-dichloro-3-(3,4-dichloro-5-fluorophenyl)cyclopropane-1-carboxamido)-N-(2,2,2-trifluoroethyl)benzamide] | 50 to 100 | 50 to 100 | A (80–100) |
| O=C(NCC(F)(F)F)c1cc(NC(=O)[C@H]2[C@H](c3cc(Br)cc(S(F)(F)(F)(F)F)c3)C2(Cl)Cl)ccc1Cl (relative stereo) [F2008, trans-5-(3-(3-Bromo-5-(pentafluoro-λ^6-sulfanyl)phenyl)-2,2-dichlorocyclopropane-1-carboxamido)-2-chloro-N-(2,2,2-trifluoroethyl)benzamide] | 50 to 100 | 50 to 100 | A (80–100) |
| O=C(NCC(F)(F)F)c1cc(NC(=O)[C@H]2[C@@H](c3ccc(F)c(Cl)c3F)C2(Cl)Cl)ccc1Cl (relative stereo) [F2010, cis-2-Chloro-5-(2,2-dichloro-3-(3-chloro-2,4-difluorophenyl)cyclopropane-1-carboxamido)-N-(2,2,2-trifluoroethyl)benzamide] | 50 to 100 | 50 to 100 | A (80–100) |
| O=C(NCC(F)(F)F)c1cc(NC(=O)[C@H]2[C@H](c3cc(C(F)(F)F)cc(Cl)c3F)C2(Cl)Cl)ccc1Cl (relative stereo) [F2012, trans-2-Chloro-5-(2,2-dichloro-3-(3-chloro-2-fluoro-5-(trifluoromethyl)phenyl)cyclopropane-1-carboxamido)-N-(2,2,2-trifluoroethyl)benzamide] | 50 to 100 | 50 to 100 | A (80–100) |
| O=C(NCC(F)(F)F)c1cc(NC(=O)[C@H]2[C@@H](c3cc(C(F)(F)F)cc(Cl)c3F)C2(Cl)Cl)ccc1Cl (relative stereo) [F2013, cis-2-Chloro-5-(2,2-dichloro-3-(3-chloro-2-fluoro-5-(trifluoromethyl)phenyl)cyclopropane-1-carboxamido)-N-(2,2,2-trifluoroethyl)benzamide] | 50 to 100 | 50 to 100 | A (80–100) |
| Cc1cc([C@H]2[C@H](C(=O)Nc3ccc(Cl)c(C(=O)NCC(F)(F)F)c3)C2(Cl)Cl)cc(C(F)(F)F)c1F (relative stereo) [F2014, trans-2-Chloro-5-(2,2-dichloro-3-(4-fluoro-3-methyl-5-(trifluoromethyl)phenyl)-cyclopropane-1-carboxamido)-N-(2,2,2-trifluoroethyl)benzamide] | 50 to 100 | 50 to 100 | A (80–100) |
| Cc1cc([C@@H]2[C@H](C(=O)Nc3ccc(Cl)c(C(=O)NCC(F)(F)F)c3)C2(Cl)Cl)cc(C(F)(F)F)c1F (relative stereo) [F2015, cis-2-Chloro-5-(2,2-dichloro-3-(4-fluoro-3-methyl-5-(trifluoromethyl)phenyl)-cyclopropane-1-carboxamido)-N-(2,2,2-trifluoroethyl)benzamide] | 50 to 100 | 50 to 100 | A (80–100) |
| O=C(NCC(F)(F)C(F)(F)F)c1c(F)ccc(NC(=O)[C@H]2[C@H](c3ccc(F)c(Cl)c3)C2(Cl)Cl)c1F (relative stereo) [F2018, trans-3-(2,2-Dichloro-3-(3-chloro-4-fluorophenyl)cyclopropane-1-carboxamido)-2,6-difluoro-N-(2,2,3,3,3-pentafluoropropyl)benzamide] | 50 to 100 | 50 to 100 | A (80–100) |
| CCNC(=O)c1c(Cl)ccc(NC(=O)[C@H]2[C@H](c3ccc(F)c(Cl)c3)C2(Cl)Cl)c1Cl (relative stereo) [F2019, trans-2,6-Dichloro-3-(2,2-dichloro-3-(3-chloro-4-fluorophenyl)cyclopropane-1-carboxamido)-N-ethylbenzamide] | 50 to 100 | 50 to 100 | A (80–100) |
| CCCNC(=O)c1c(Cl)ccc(NC(=O)[C@H]2[C@H](c3ccc(F)c(Cl)c3)C2(Cl)Cl)c1Cl (relative stereo) [F2022, trans-2,6-Dichloro-3-(2,2-dichloro-3-(3-chloro-4-fluorophenyl)cyclopropane-1-carboxamido)-N-propylbenzamide] | 50 to 100 | 50 to 100 | A (80–100) |
| O=C(NCCC(F)(F)F)c1c(F)ccc(NC(=O)[C@H]2[C@H](c3ccc(F)c(Cl)c3)C2(Cl)Cl)c1F (relative stereo) [F2023, trans-3-(2,2-Dichloro-3-(3-chloro-4-fluorophenyl)cyclopropane-1-carboxamido)-2,6-difluoro-N-(3,3,3-trifluoropropyl)benzamide] | 50 to 100 | 50 to 100 | A (80–100) |
| O=C(NCCC(F)(F)F)c1c(Cl)ccc(NC(=O)[C@H]2[C@H](c3ccc(F)c(Cl)c3)C2(Cl)Cl)c1Cl (relative stereo) [F2024, trans-2,6-Dichloro-3-(2,2-dichloro-3-(3-chloro-4-fluorophenyl)cyclopropane-1-carboxamido)-N-(3,3,3-trifluoropropyl)benzamide] | 50 to 100 | 50 to 100 | A (80–100) |
| O=C(NCCCCl)c1c(F)ccc(NC(=O)[C@H]2[C@H](c3ccc(F)c(Cl)c3)C2(Cl)Cl)c1F (relative stereo) [F2028, trans-N-(3-Chloropropyl)-3-(2,2-dichloro-3-(3-chloro-4-fluorophenyl)cyclopropane-1-carboxamido)-2,6-difluorobenzamide] | 50 to 100 | 50 to 100 | A (80–100) |
